Results published in patent US9266857B2, “Bicyclic AZA compounds as muscarinic M1 receptor agonists” (Heptares Therapeutics Limited, priority 2012, dated 2016).
Read-outs that look alike come from different tables or passages of the source.

Columns and labels:
Type in all cases: cell-based
[1] = biological target: T1, human muscarinic M2 receptor (Homo sapiens, UniProt P08172); test: Alphascreen Surefire phospho-ERK1/2 functional assay, M2; conditions: for EC50: CHO cells stably expressing human M2, phospho-ERK1/2, read-out: pEC50 M2 (converted); for Emax: CHO, read-out: % Emax cf. ACh, M2
T1 construct: expressed in transfected cells
T1 sequence (P08172 1-466): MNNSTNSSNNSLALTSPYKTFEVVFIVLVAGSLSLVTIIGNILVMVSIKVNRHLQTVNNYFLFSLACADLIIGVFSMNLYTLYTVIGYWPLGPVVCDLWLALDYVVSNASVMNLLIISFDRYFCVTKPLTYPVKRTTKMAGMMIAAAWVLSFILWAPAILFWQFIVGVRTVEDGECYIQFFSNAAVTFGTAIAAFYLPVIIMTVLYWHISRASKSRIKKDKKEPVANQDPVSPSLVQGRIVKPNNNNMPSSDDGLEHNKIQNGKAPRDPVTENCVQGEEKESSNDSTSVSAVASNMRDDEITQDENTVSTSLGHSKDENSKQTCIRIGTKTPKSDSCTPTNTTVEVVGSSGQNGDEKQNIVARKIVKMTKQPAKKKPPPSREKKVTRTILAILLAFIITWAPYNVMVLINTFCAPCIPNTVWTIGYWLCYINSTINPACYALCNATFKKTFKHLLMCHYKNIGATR
Procedure: (§1) ERK1/2 phosphorylation is a downstream consequence of both Gq/11 and Gi/o protein coupled receptor activation, making it highly suitable for the assessment of M1, M3 (Gq/11 coupled) and M2, M4 receptors (Gi/o coupled), rather than using different assay formats for different receptor subtypes. CHO cells stably expressing the human muscarinic M1, M2, M3 or M4 receptor were plated (25K/well) onto 96-well tissue culture plates in MEM-alpha+10% dialysed FBS. Once adhered, cells were serum-starved overnight. Agonist stimulation was performed by the addition of 5 μL agonist to the cells for 5 min (37° C.). Media was removed and 50 μL of lysis buffer added. After 15 min, a 4 μL sample was transferred to 384-well plate and 7 μL of detection mixture added. Plates were incubated for 2 h with gentle agitation in the dark and then read on a PHERAstar plate reader.
(§2) pEC50 and Emax figures were calculated from the resulting data for each receptor subtype.

[2] = biological target: T2, human muscarinic M3 receptor (Homo sapiens, UniProt P20309); test: Alphascreen Surefire phospho-ERK1/2 functional assay, M3; conditions: for EC50: CHO cells stably expressing human M3, phospho-ERK1/2, read-out: pEC50 M3 (converted); for Emax: CHO, read-out: % Emax cf. ACh, M3
T2 construct: expressed in transfected cells
Procedure: as §1, §2

[3] = biological target: T3, human muscarinic M1 receptor (Homo sapiens, UniProt P11229); test: Alphascreen Surefire phospho-ERK1/2 functional assay, M1; conditions: for EC50: CHO cells stably expressing human M1, phospho-ERK1/2, read-out: pEC50 M1 (converted); for Emax: CHO
T3 construct: expressed in transfected cells
T3 sequence (P11229 1-460): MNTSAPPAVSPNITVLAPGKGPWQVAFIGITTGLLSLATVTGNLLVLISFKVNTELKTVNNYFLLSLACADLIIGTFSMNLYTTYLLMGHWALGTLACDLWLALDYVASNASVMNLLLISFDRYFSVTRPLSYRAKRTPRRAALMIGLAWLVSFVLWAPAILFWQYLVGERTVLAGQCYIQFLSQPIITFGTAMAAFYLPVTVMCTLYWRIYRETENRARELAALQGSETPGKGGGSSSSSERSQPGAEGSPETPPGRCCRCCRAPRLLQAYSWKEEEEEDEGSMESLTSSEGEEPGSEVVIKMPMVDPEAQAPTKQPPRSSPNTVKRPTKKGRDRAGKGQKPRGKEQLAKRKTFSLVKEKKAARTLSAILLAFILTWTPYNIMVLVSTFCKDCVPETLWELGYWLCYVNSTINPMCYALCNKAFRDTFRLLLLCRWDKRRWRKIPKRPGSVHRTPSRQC
Procedure: as §1, §2

[4] = biological target: T4, human muscarinic M4 receptor (Homo sapiens, UniProt P08173); test: Alphascreen Surefire phospho-ERK1/2 functional assay, M4; conditions: for EC50: phospho-ERK1/2, read-out: pEC50 M4 (converted); for Emax: CHO
T4 construct: expressed in transfected cells
T4 sequence (P08173 1-479): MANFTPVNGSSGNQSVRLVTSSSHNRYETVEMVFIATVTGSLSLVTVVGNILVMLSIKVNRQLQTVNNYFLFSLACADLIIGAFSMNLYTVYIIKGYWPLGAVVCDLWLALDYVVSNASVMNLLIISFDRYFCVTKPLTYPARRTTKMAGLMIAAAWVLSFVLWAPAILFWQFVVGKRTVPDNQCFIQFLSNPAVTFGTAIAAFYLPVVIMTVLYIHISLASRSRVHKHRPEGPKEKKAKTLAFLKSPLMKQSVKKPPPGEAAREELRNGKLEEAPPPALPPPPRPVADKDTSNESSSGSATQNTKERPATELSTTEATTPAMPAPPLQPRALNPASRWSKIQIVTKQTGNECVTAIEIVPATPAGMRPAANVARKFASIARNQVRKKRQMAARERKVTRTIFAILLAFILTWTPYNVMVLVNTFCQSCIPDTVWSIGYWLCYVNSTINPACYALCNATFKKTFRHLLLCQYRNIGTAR
Procedure: as §1, §2

[5] = CHO cells stably expressing human M4
[6] = read-out: % Emax cf. ACh, M1, CHO cells stably expressing human M1, relative to ACh

T2 sequence (P20309 whole entry): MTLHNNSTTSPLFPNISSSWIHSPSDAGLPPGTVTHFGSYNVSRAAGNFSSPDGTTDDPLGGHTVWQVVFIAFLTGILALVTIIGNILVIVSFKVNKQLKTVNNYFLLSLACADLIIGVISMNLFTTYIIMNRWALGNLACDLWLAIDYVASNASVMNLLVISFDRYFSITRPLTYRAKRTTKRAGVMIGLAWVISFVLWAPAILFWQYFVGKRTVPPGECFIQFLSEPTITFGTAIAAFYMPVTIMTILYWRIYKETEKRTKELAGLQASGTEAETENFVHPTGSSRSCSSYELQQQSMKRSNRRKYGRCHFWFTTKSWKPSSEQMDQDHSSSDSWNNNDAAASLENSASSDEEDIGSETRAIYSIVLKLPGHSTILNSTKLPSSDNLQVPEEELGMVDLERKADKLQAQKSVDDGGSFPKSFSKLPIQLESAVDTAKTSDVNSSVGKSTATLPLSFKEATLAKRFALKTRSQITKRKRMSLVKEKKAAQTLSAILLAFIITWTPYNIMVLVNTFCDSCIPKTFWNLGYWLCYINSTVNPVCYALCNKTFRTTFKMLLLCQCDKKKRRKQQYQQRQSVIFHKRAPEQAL

For `CCOC(=O)N1CCC2(CC(N3CCC(F)(C(=O)NC4(C)CCC4)CC3)C2)C1` (mixture of isomers) [Example 11 - mixture of diastereomers, ethyl 2-{4-fluoro-4-[(1-methylcyclobutyl)carbamoyl]piperidin-1-yl}-6-azaspiro[3.4]octane-6-carboxylate], the EC50 [1] was greater than 20000 nM, the Emax [1] was 6% and the EC50 [2] was greater than 20000 nM. The Emax [2] was 4%, the EC50 [3] was 28.2 nM and the Emax ([3]; read-out: % Emax cf. ACh, M1) was 112%. It also gave an EC50 [4, 5] of 204 nM and an Emax ([4]; read-out: % Emax cf. ACh, M4) of 77%.
`CC#CCOC(=O)N1CCC2(CC(N3CCC(C(=O)NC4(C)CCC4)CC3)C2)C1` (mixture of isomers) [Example 10 - mixture of diastereomers, but-2-yn-1-yl 2-{4-[(1-methylcyclobutyl)carbamoyl]piperidin-1-yl}-6-azaspiro[3.4]octane-6-carboxylate] showed an EC50 [1] greater than 20000 nM, an Emax [1] of 10% and an EC50 [2] greater than 20000 nM. For the same compound, the Emax [2] was 3%, the EC50 [3] was 155 nM and the Emax ([3]; read-out: % Emax cf. ACh, M1) was 93%. For the same compound, the EC50 [4, 5] was 339 nM and the Emax ([4]; read-out: % Emax cf. ACh, M4) was 42%.
Compound `CCOC(=O)N1CCC2(CC(N3CCC(C(=O)NC4(C)CCC4)CC3)C2)C1` (single isomer, unassigned) [Example 9 - Isomer 1, ethyl 2-{4-[(1-methylcyclobutyl)carbamoyl]piperidin-1-yl}-6-azaspiro[3.4]octane-6-carboxylate] has an EC50 [3] of 302 nM, an Emax ([3]; read-out: % Emax cf. ACh, M1) of 102% and an EC50 [4, 5] of 589 nM. It also gave an Emax ([4]; read-out: % Emax cf. ACh, M4) of 67%.
With `[2H]C([2H])([2H])C1(NC(=O)C2CCN(C3CC4(CCN(C(=O)OC([2H])([2H])C([2H])([2H])[2H])C4)C3)CC2)CCC1` (single isomer, unassigned) [Example 30 - Isomer 2, (1,1,2,2,2-pentadeutero)ethyl 2-(4-{[1-(1,1,1-trideuteromethyl)cyclobutyl]carbamoyl}piperidin-1-yl)-6-azaspiro[3.4]octane-6-carboxylate] the EC50 [3] was 85.1 nM, the Emax ([3]; read-out: % Emax cf. ACh, M1) was 105% and the EC50 [4, 5] was 195 nM. For the same compound, the Emax ([4]; read-out: % Emax cf. ACh, M4) was 111%.
`C#CCOC(=O)N1CC2(CCC(N3CCC(C(=O)NC4(C)CCC4)CC3)C2)C1` (racemic) [Example 13 - racemic, prop-2-yn-1-yl 6-{4-[(1-methylcyclobutyl)carbamoyl]piperidin-1-yl}-2-azaspiro[3.4]octane-2-carboxylate] showed an EC50 [1] greater than 20000 nM, an Emax [1] of 7% and an EC50 [2] greater than 20000 nM. For the same compound, the Emax [2] was 39%, the EC50 [3] was 15.8 nM and the Emax ([3]; read-out: % Emax cf. ACh, M1) was 139%. The EC50 [4, 5] was 52.5 nM and the Emax ([4]; read-out: % Emax cf. ACh, M4) was 44%.
Work on `CCOC(=O)N1CCC2(CC(N3CCC(C(=O)NC(C)(C)CC)CC3)C2)C1` (mixture of isomers) [Example 16 - mixture of diastereomers, ethyl 2-{4-[(2-methylbutan-2-yl)carbamoyl]piperidin-1-yl}-6-azaspiro[3.4]octane-6-carboxylate] yielded an EC50 [3] of 309 nM, an Emax ([3]; read-out: % Emax cf. ACh, M1) of 113% and an EC50 [4, 5] of 646 nM. The Emax ([4]; read-out: % Emax cf. ACh, M4) was 56%.
With `CCOC(=O)N1C2CCC1CC(N1CCC(F)(C(=O)NC3(C)CCC3)CC1)C2` (single isomer, unassigned) [Example 4 - Isomer 2, ethyl 3-{4-fluoro-4-[(1-methylcyclobutyl)carbamoyl]piperidin-1-yl}-8-azabicyclo[3.2.1]octane-8-carboxylate] the EC50 [3] was 145 nM, the Emax [3, 6] was 111% and the EC50 [4, 5] was 1070 nM. For the same compound, the Emax ([4]; read-out: % Emax cf. ACh, M4, CHO cells stably expressing human M4, relative to ACh) was 44%.
For `[2H]C([2H])([2H])C1(NC(=O)C2CCN(C3CC4(CCN(C(=O)OCC)C4)C3)CC2)C([2H])([2H])C([2H])([2H])C1([2H])[2H]` (single isomer, unassigned) [Example 22 - Isomer 2, ethyl 2-(4-{[1-(1,1,1-trideuteromethyl)-2,2,3,3,4,4-hexadeuterocyclobutyl]carbamoyl}piperidin-1-yl)-6-azaspiro[3.4]octane-6-carboxylate], the EC50 [3] was 79.4 nM, the Emax ([3]; read-out: % Emax cf. ACh, M1) was 103% and the EC50 [4, 5] was 209 nM. For the same compound, the Emax ([4]; read-out: % Emax cf. ACh, M4) was 67%.
With `CCOC(=O)N1C2CCC1CC(N1CCC(C(=O)NC3(C)CCC3)CC1)C2` (single isomer, unassigned) [Example 1 - Isomer 1, ethyl 3-{4-[(1-methylcyclobutyl)carbamoyl]piperidin-1-yl}-8-azabicyclo[3.2.1]octane-8-carboxylate] the EC50 [3] was 324 nM, the Emax [3, 6] was 99% and the EC50 [4, 5] was 1020 nM. The “% Emax cf. ACh, M4” value ([4]; CHO cells stably expressing human M4, relative to ACh, listed as 1 - Isomer 1) was 51%.
With `[2H]C([2H])([2H])COC(=O)N1CCC2(CC(N3CCC(C(=O)NC4(C([2H])([2H])[2H])CCC4)CC3)C2)C1` (single isomer, unassigned) [Example 26 - Isomer 2, (2,2,2-trideutero)ethyl 2-(4-{[1-(1,1,1-trideuteromethyl)cyclobutyl]carbamoyl}piperidin-1-yl)-6-azaspiro[3.4]octane-6-carboxylate] the EC50 [3] was 81.3 nM, the Emax ([3]; read-out: % Emax cf. ACh, M1) was 108% and the EC50 [4, 5] was 257 nM. It also gave an Emax ([4]; read-out: % Emax cf. ACh, M4) of 110%.
`CCOC(=O)N1CCC2(CC(N3CCC(C(=O)NC4(CF)CCC4)CC3)C2)C1` (single isomer, unassigned) [Example 23 - Isomer 2, ethyl 2-(4-{[1-(fluoromethyl)cyclobutyl]carbamoyl}piperidin-1-yl)-6-azaspiro[3.4]octane-6-carboxylate] was tested, and the EC50 [3] was 155 nM, the Emax ([3]; read-out: % Emax cf. ACh, M1) was 90% and the EC50 [4, 5] was 219 nM. It also gave an Emax ([4]; read-out: % Emax cf. ACh, M4) of 67%.
`[2H]C([2H])([2H])COC(=O)N1CCC2(CC(N3CCC(C(=O)NC4(CF)CCC4)CC3)C2)C1` (single isomer, unassigned) [Example 28 - Isomer 2, (2,2,2-trideutero)ethyl 2-(4-{[1-(fluoromethyl)cyclobutyl]carbamoyl}piperidin-1-yl)-6-azaspiro[3.4]octane-6-carboxylate] was tested, and the EC50 [3] was 324 nM, the Emax ([3]; read-out: % Emax cf. ACh, M1) was 120% and the EC50 [4, 5] was 309 nM. The Emax ([4]; read-out: % Emax cf. ACh, M4) was 106%.
In the case of `[2H]C([2H])([2H])C([2H])([2H])OC(=O)N1CCC2(CC(N3CCC(C(=O)NC4(C([2H])([2H])[2H])C([2H])([2H])C([2H])([2H])C4([2H])[2H])CC3)C2)C1` (mixture of isomers) [Example 31 - mixture of diastereomers, (1,1,2,2,2-pentadeutero)ethyl 2-(4-{[1-(1,1,1-trideuteromethyl)-2,2,3,3,4,4-hexadeuterocyclobutyl]carbamoyl}piperidin-1-yl)-6-azaspiro[3.4]octane-6-carboxylate], the EC50 [3] is reported as 407 nM, the Emax ([3]; read-out: % Emax cf. ACh, M1) is reported as 110% and the EC50 [4, 5] is reported as 646 nM. It also gave an Emax ([4]; read-out: % Emax cf. ACh, M4) of 77%.
Work on `CCOC(=O)N1CCC2(CC(N3CCC(C(=O)NCC4CCC4)CC3)C2)C1` (mixture of isomers) [Example 19 - mixture of diastereomers, ethyl 2-{4-[(cyclobutylmethyl)carbamoyl]piperidin-1-yl}-6-azaspiro[3.4]octane-6-carboxylate] yielded an EC50 [3] of 363 nM, an Emax ([3]; read-out: % Emax cf. ACh, M1) of 109% and an EC50 [4, 5] of 1020 nM. For the same compound, the Emax ([4]; read-out: % Emax cf. ACh, M4) was 42%.
